Test results from patent publication US8366935B2, “Phyllanthus extract” (Phytrix Inc., priority 2008, dated 2013).
pKd: −log10 of the molar value.

target: T1, gp120 (Human immunodeficiency virus type 1 group M subtype B, UniProt P03375); assay: biochemical; type: binding, HIV
T1 construct: loaded with 25 μl of 6 mg/ml of gp120 (25 μM) in PBS pH 7.2
Experimental: If needed, experiments were repeated within a smaller concentration range (i.e., 10 trials from 0.01 to 0.10 mmol). A total volume of either 50 μl was used in each analysis. Analytes were loaded in the opposite side of the membrane and equilibrium was obtained after incubation of 12 hrs at 23° C. The association constants were determined by non-linear regression analysis. Concentrations of compounds analysed were determined by HPLC analysis by comparison against an internal control (diethyl-7-dimethylaminocoumarineacetamide). HPLC controls were run with an equimolar amount of control and analyte. The relative concentrations of each analyte were determined at both sides of the membrane. […] Each data point was recollected after regeneration of the dialysis setup by exposing the non-protein containing face of the membrane to 5 ml of PBS pH 7.2 twice for 4 to 10 hrs at 23° C.

Row | Compound | pKd
1 | O=C(O[C@@H]1O[C@@H]2COC(=O)c3cc(O)c(O)c(O)c3-c3c(cc(O)c(O)c3O)C(=O)O[C@H]([C@H]1O)[C@@H]2O)c1cc(O)c(O)c(O)c1 [Corilagin] | 6.92
2 | O=C(O)c1cc(O)c(O)c(O)c1 [Gallic acid] | ≤ 4.00
3 | O=C1O[C@H]2[C@@H]3OC(=O)c4cc(O)c(O)c(O)c4-c4c(cc(O)c(O)c4O)C(=O)OC[C@H]2O[C@@H](OC(=O)c2cc(O)c(O)c(O)c2)[C@@H]3OC(=O)c2cc(O)c(O)c3c2[C@@H]2C1=CC(=O)[C@](O)(O3)C2(O)O [Geraniin] | 7.12
4 | Cc1c(O)c(O)cc2c1C(/C(=C/C(=O)O)C(=O)OC1C3COC(=O)c4cc(O)c(O)c(O)c4-c4c(cc(O)c(O)c4O)C(=O)OC1C(O)C(OC(=O)c1cc(O)c(O)c(O)c1)O3)C(C(=O)O)OC2=O (stereo not shown) [Repandusinic acid] | 7.66
